Assay results reported in patent US11661399B2, “Methods and compositions for preventing degradation of dimethyl trisulfide” (priority 2018, dated 2023).

Key:
[1] = DMTS degradation over 14 days at 54° C. (gas chromatograph, Day 0 vs Day 14); format: physicochemical; conditions: water + MDEA, pH lowered to 2, two weeks at 54° C.
Procedure: (§1) EPA accelerated stability guidelines call for storage of compositions at 54° C. for two weeks. This is considered to be the equivalent to storing compositions for one year at room temperature. These conditions were applied to the following studies to ensure that DMTS can be formulated in compliance with EPA guidelines.
In this example, various concentrations of DMTS in water, ethanol (EtOH), and propylene glycol (PG), with and without MDEA, were prepared and tested for degradation. The pH was adjusted to 2, 7, or 12+/−0.5 with sodium hydroxide or hydrochloric acid. The DMTS concentration was measured by gas chromatograph on Day 0 and Day 14 and the percent degradation calculated from those values. The formulas were capped and stored at 54° C. for two weeks.

[2] = Accelerated stability storage: DMTS recovery over time in solution; format: physicochemical; conditions: for DMTS degraded: 14 days at 54° C.
Procedure: as §1
120 ppm DMTS only is compared to 120 ppm DMTS with 420 ppm MDEA. Using the accelerated conditions described above, DMTS in water was still observed to be degrading over time.
Various conditions were modified to improve the overall stability of DMTS in solution. First, the pH was lowered by buffering the solution. It was predicted that a lower pH might prevent the catalyzation of DMTS breakdown. The solution was buffered to a pH of 6 and compared to a control. 32 ppm DMTS was stored in glass at 40° C. for 7 days, then stored at 54° C. for an additional 15 days.
DMDS was added to the DMTS in this example. It was hypothesized that if the breakdown pathway of DMTS to DMDS exists in equilibrium, additional DMDS would stabilize the breakdown pathway. DMDS was added to formulas containing DMTS only and DMTS with MDEA.
It was hypothesized that propylene glycol (PG) could have a similar effect. Samples were prepared with 8 ppm and 4 ppm DMTS in water as controls. Experimental samples included 8 ppm DMTS with 1% PG or 10% PG. A sample was also prepared in an HDPE container that was not fluorinated.
This example examined the effects of fluorination of HDPE containers on the stability of DMTS. Stability of DMTS was recorded for storage at 54° C. over the course of 14 days. Glass containers were used as a control. HDPE containers were tested having no fluorination (F0), Level 3 fluorination (F3), and Level 5 fluorination (F5). Samples of DMTS were prepared to a dilution of 8 ppm DMTS in water with 10% PG.
Given the improvements seen with 10% PG used as solvent, higher concentrations of PG were tested. 0.28% DMTS in 100% PG was tested for stability over two weeks at 54° C. Storage in glass containers was compared to HDPE containers with Level 3 fluorination.
Other solvents were tested without dilution with water. Samples of 0.03% DMTS were prepared in 100% solvent. The solvents tested were ethanol in a glass container, PG in a glass container, PG in a non-fluorinated HDPE container, and glycerol in a glass container.
In this example, 0.03 wt-% (300 ppm) DMTS was dissolved into solvent consisting of 100% ethanol (EtOH) or 100% propylene glycol (PG). This study is very similar to Example 7. Recovery of DMTS was recorded over the course of 14 days. The DMTS solutions were stored in the accelerated conditions of 54° C. Less than 10% DMTS was degraded over the course of 14 days for both EtOH and PG.
In this example, a lower concentration of DMTS was used to produce a use composition. 32 ppm DMTS was dissolved in either a 100% water solution or a combination of 10% PG and 90% water. The same accelerated conditions were used for 14 days. Over 70% of DMTS was recovered with water as the only solvent. However, using a 10% PG solution in water improved DMTS stability, providing greater than 80% recovery.
Even lower concentrations of DMTS were examined to determine if further dilution of the concentrate affects stability of DMTS. Solutions including 8 ppm DMTS were prepared. DMTS was dissolved in water, a solution of 1 wt-% PG in water, and a solution 10 wt-% PG in water. […] The reduced quantity of DMTS did have a slight negative effect on stability.
Finally, solutions including 1 ppm DMTS were examined to determine if use compositions including small amounts of DMTS can remain stable over the course of the two week testing period at 54° C. […] Hard water had the greatest negative effect on DMTS stability.

CSSSC [DMTS, dimethyl trisulfide]
DMTS degraded [1]: 20%
DMTS remaining in solution ([2]; 1 ppm DMTS in hard water, day 14, 54° C.): no DMTS remained
DMTS stability (in words) ([2]; 8 ppm DMTS in water with 10% PG, HDPE Level 5 fluorination (F5), 54° C., 14 days): best results which were similar to the glass containers
DMTS degradation (in words) ([2]; 8 ppm DMTS in water with 10% PG, non-fluorinated HDPE (F0), 54° C., 14 days): fastest rates of DMTS degradation
DMTS stability (in words) ([2]; 8 ppm DMTS with 1% PG or 10% PG vs water controls): Some improvement
DMTS recovered ([2]; 32 ppm DMTS in 100% water, 14 days accelerated conditions): Over 70%
DMTS degradation (in words) ([2]; 32 ppm DMTS in solution with ethanol, glass, 40° C. 7 days then 54° C. 15 days): least degradation
DMTS stability (in words) ([2]; 32 ppm DMTS, N2 blanket and soft water samples, glass, 40° C. 7 days then 54° C. 15 days): least stable conditions
DMTS breakdown (in words) ([2]; 32 ppm DMTS, pH 6 buffer, glass, 40° C. 7 days then 54° C. 15 days): faster breakdown than the control
DMTS degradation over time (in words) ([2]; 120 ppm DMTS only in water vs 120 ppm DMTS with 420 ppm MDEA, accelerated conditions): degradation was slowed significantly
DMTS degraded ([2]; 300 ppm DMTS in 100% EtOH): Less than 10%
DMTS degraded ([2]; 300 ppm DMTS in 100% PG): Less than 10%
DMTS breakdown (in words) ([2]; DMDS added to DMTS only and DMTS with MDEA formulas): did not slow down the breakdown of DMTS
DMTS degradation (in words) ([2]; sample in non-fluorinated HDPE container, 54° C.): significantly faster degradation
